According to patent US5753715A, “2-disubstituted cyclohexenyl and cyclohexyl antimicrobial agents” (Ortho Pharmaceutical Corporation, priority 1995, dated 1998):
Converted amounts (≈) assume the structure as drawn.

Legend:
Kinase A and SpoOF = molecular target: T1, Kinase A and SpoOF (Bacillus subtilis, UniProt P16497); assay: Autophosphorylation of Kinase A and Transphosphorylation of SPoOF Assay; format: biochemical; details: inhibition of Kinase A autophosphorylation / SpoOF transphosphorylation, [32P]ATP, gel, phosphoimager
T1 sequence (P16497 1-606): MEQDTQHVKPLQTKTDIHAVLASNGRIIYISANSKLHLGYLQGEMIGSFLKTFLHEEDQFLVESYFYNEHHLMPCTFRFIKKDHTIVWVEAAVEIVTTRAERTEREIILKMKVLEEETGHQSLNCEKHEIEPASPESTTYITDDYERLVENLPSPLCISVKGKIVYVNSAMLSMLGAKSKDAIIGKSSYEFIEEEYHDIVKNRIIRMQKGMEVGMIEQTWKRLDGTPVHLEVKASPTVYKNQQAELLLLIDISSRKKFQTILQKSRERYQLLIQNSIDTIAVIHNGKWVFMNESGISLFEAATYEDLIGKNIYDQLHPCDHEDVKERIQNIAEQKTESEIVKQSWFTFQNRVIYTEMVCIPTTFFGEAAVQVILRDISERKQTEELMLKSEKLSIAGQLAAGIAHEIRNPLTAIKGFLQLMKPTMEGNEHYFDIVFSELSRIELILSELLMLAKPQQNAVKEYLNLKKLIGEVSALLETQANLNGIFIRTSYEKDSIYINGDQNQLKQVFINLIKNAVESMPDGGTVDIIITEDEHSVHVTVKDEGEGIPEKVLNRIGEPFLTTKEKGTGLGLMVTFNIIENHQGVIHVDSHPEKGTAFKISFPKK

S. epi oc2603 = assay: MIC, microdilution broth method (NCCLS); format: cell-based; design: unit not given here; details: cation supplemented Mueller Hinton broth, 35° C., 16-20 hours
Procedure: (§1) The in vitro antimicrobial spectrum of the compounds of the present invention were determined by the microdilution broth method following the test method from the National Committee for […] (NCCLS ). The method is described in the NCCLS Document M7-A2, Vol. 10, No.8 "Methods for Dilution Antimicrobial Susceptibility Test for Bacteria that Grow Aerobically--Second Edition".
(§2) In this method two fold serial dilutions of drug in cation supplemented Mueller Hinton broth are added to wells in microdilution trays. The test organisms are prepared by adjusting the turbidity of actively growing broth cultures so that the final concentration of test organism after it is added to the wells is approximately 5×10^4 colony forming units per well delivered by the Steers replicating device.
(§3) Following inoculation of the microdilution trays, the trays are incubated at 35° C. for 16-20 hours and then read. […] The amount of growth in the wells containing the test compound is compared with the amount of growth in the growth-control wells used in each tray.

C. albicans 10231 = assay: MIC, microdilution broth method (NCCLS); format: cell-based; details: cation supplemented Mueller Hinton broth, 35° C., 16-20 hours; unit assumed
Procedure: as §1, §2, §3

E. faecium oc2993 = assay: MIC, microdilution broth method (NCCLS); format: cell-based; details: cation supplemented Mueller Hinton broth, 35° C., 16-20 hours; unit assumed
Procedure: as §1, §2, §3

Ps. aerug. oc27853 = assay: MIC, microdilution broth method (NCCLS); format: cell-based; details: cation supplemented Mueller Hinton broth, 35° C., 16-20 hours; unit assumed
Procedure: as §1, §2, §3

C. tropicalis = assay: MIC, microdilution broth method (NCCLS); format: cell-based; details: cation supplemented Mueller Hinton broth, 35° C., 16-20 hours; unit assumed
Procedure: as §1, §2, §3

E. faecalis ACTCC 29212 = assay: MIC, microdilution broth method (NCCLS); format: cell-based; details: cation supplemented Mueller Hinton broth, 35° C., 16-20 hours; unit assumed
Procedure: as §1, §2, §3

Ps. aerug. oc161 = assay: MIC, microdilution broth method (NCCLS); format: cell-based; details: cation supplemented Mueller Hinton broth, 35° C., 16-20 hours; unit assumed
Procedure: as §1, §2, §3

E. faecalis oc3041 = assay: MIC, microdilution broth method (NCCLS); format: cell-based; details: cation supplemented Mueller Hinton broth, 35° C., 16-20 hours; unit assumed
Procedure: as §1, §2, §3

S. aureus ATCC 29213 = assay: MIC, microdilution broth method (NCCLS); format: cell-based; details: cation supplemented Mueller Hinton broth, 35° C., 16-20 hours; unit assumed
Procedure: as §1, §2, §3

K. pneum. oc1943 = assay: MIC, microdilution broth method (NCCLS); format: cell-based; details: cation supplemented Mueller Hinton broth, 35° C., 16-20 hours; unit assumed
Procedure: as §1, §2, §3

E. coli oc2530 = assay: MIC, microdilution broth method (NCCLS); format: cell-based; details: cation supplemented Mueller Hinton broth, 35° C., 16-20 hours; unit assumed
Procedure: as §1, §2, §3

MRSA oc667 = assay: MIC, microdilution broth method (NCCLS); format: cell-based; details: cation supplemented Mueller Hinton broth, 35° C., 16-20 hours; unit assumed
Procedure: as §1, §2, §3

A. niger 10578 = assay: MIC, microdilution broth method (NCCLS); format: cell-based; details: cation supplemented Mueller Hinton broth, 35° C., 16-20 hours; unit assumed
Procedure: as §1, §2, §3

E. coli oc2605 = assay: MIC, microdilution broth method (NCCLS); format: cell-based; details: cation supplemented Mueller Hinton broth, 35° C., 16-20 hours; unit assumed
Procedure: as §1, §2, §3

MRSA oc2089 = assay: MIC, microdilution broth method (NCCLS); format: cell-based; details: cation supplemented Mueller Hinton broth, 35° C., 16-20 hours; unit assumed
Procedure: as §1, §2, §3

Compound | IC50 (Kinase A and SpoOF) [mM] | IC min (Kinase A and SpoOF) [mM] | also measured
CC(C)C1(CCOc2ccc(CCNCCN3CCCC3)cc2)C=CCCC1 (centres unmarked) [Compound 23] | 295 | 125 | –
CNCCc1cccc(OCCC2(Cc3ccccc3)C=CCCC2)c1 (centres unmarked) [Compound 37] | 107.7 | 62.5 | –
CNCCCc1ccc(OCCC2(Cc3ccccc3)C=CCCC2)cc1 (centres unmarked) [Compound 19] | 82.1 | 62.5 | –
CNCCCc1cnc(SCCC2(Cc3ccccc3)C=CCCC2)nc1 (centres unmarked) [Compound 8] | 92.3 | – | –
COc1ccc(CC2(CCOc3cccc(CNC(=N)N)c3)C=CCCC2)cc1 (centres unmarked) [Compound 56] | 66.6 | – | –
COc1ccc(CC2(CCOc3ccccc3CN)C=CCCC2)cc1 (centres unmarked) [Compound 54] | 122 | – | –
NCCc1ccc(OCCC2(Cc3ccccc3)CCCCC2)cc1 [Compound 13] | 39.5 | 7.8 | –
CCCCC1(CCOc2ccc(CCCNC)cc2)C=CCCC1 (centres unmarked) [Compound 32] | 164 | 125 | –
NCCCc1cnc(NCCC2(Cc3ccccc3)C=CCCC2)nc1 (centres unmarked) [Compound 49] | 162 | – | MIC S. epi oc2603 (S. epi oc2603): 16; MIC C. albicans 10231 (C. albicans 10231): 32 µg/mL (≈ 91.3 µM); MIC E. faecium oc2993 (E. faecium oc2993): 32 µg/mL (≈ 91.3 µM); MIC Ps. aerug. oc27853 (Ps. aerug. oc27853): 128 µg/mL (≈ 365 µM); MIC C. tropicalis (C. tropicalis): 16 µg/mL (≈ 45.6 µM); MIC E. faecalis ACTCC 29212 (E. faecalis ACTCC 29212): 32 µg/mL (≈ 91.3 µM); MIC Ps. aerug. oc161 (Ps. aerug. oc161): 128 µg/mL (≈ 365 µM); MIC E. faecalis oc3041 (E. faecalis oc3041): 32 µg/mL (≈ 91.3 µM); MIC S. aureus ATCC 29213 (S. aureus ATCC 29213): 64 µg/mL (≈ 183 µM); MIC K. pneum. oc1943 (K. pneum. oc1943): 128 µg/mL (≈ 365 µM); MIC E. coli oc2530 (E. coli oc2530): 16 µg/mL (≈ 45.6 µM); MIC MRSA oc667 (MRSA oc667): 32 µg/mL (≈ 91.3 µM); MIC A. niger 10578 (A. niger 10578): 16 µg/mL (≈ 45.6 µM); MIC E. coli oc2605 (E. coli oc2605): 128 µg/mL (≈ 365 µM); MIC MRSA oc2089 (MRSA oc2089): 32 µg/mL (≈ 91.3 µM)
CNCCCc1ccc(OCCC2(CCCc3ccccc3)C=CCCC2)cc1 (centres unmarked) [Compound 31] | 91 | 62.5 | –
CNCCCc1ccc(OCCC2(Cc3ccc(OC)cc3)C=CCCC2)cc1 (centres unmarked) [Compound 42] | 139 | 62.5 | –
CC1COc2c(N3CCN(C)CC3)c(F)cc3c(=O)c(C(=O)O)cn1c23 (centres unmarked) [OFX, reference compound] | – | – | MIC S. epi oc2603 (S. epi oc2603): 2; MIC C. albicans 10231 (C. albicans 10231): > 128 µg/mL; MIC E. faecium oc2993 (E. faecium oc2993): 4 µg/mL (≈ 11.1 µM); MIC Ps. aerug. oc27853 (Ps. aerug. oc27853): 8 µg/mL (≈ 22.1 µM); MIC C. tropicalis (C. tropicalis): > 128 µg/mL; MIC E. faecalis ACTCC 29212 (E. faecalis ACTCC 29212): 2 µg/mL (≈ 5.53 µM); MIC Ps. aerug. oc161 (Ps. aerug. oc161): 2 µg/mL (≈ 5.53 µM); MIC E. faecalis oc3041 (E. faecalis oc3041): 2 µg/mL (≈ 5.53 µM); MIC S. aureus ATCC 29213 (S. aureus ATCC 29213): 0.5 µg/mL (≈ 1.38 µM); MIC K. pneum. oc1943 (K. pneum. oc1943): 0.25 µg/mL (≈ 0.692 µM); MIC E. coli oc2530 (E. coli oc2530): ≤ 0.12 µg/mL; MIC MRSA oc667 (MRSA oc667): 0.5 µg/mL (≈ 1.38 µM); MIC A. niger 10578 (A. niger 10578): > 128 µg/mL; MIC E. coli oc2605 (E. coli oc2605): ≤ 0.12 µg/mL; MIC MRSA oc2089 (MRSA oc2089): 4 µg/mL (≈ 11.1 µM)
CN(C)CCCc1ccc(OCCC2(Cc3ccccc3)C=CCCC2)cc1 (centres unmarked) [Compound 20] | 122 | – | –
COc1ccc(CC2(CCOc3ccc(CCNC(=N)N)cc3)C=CCCC2)cc1 (centres unmarked) [Compound 47] | 21 | 15.6 | –
NC(=O)c1ccc(OCCC2(Cc3cccc(Cl)c3)C=CCCC2)cc1 (centres unmarked) [Compound 7] | 330 | – | –
COc1ccc(CC2(CCOc3ccc(CNC(=N)N)cc3)C=CCCC2)cc1 (centres unmarked) [Compound 57] | 46.6 | – | –
NCCc1ccc(OCCC2(Cc3ccc(Cl)cc3)C=CCCC2)cc1 (centres unmarked) [Compound 33] | 339.5 | 125 | –
CCCNCCCc1ccc(OCCC2(c3ccc(F)cc3)C=CCCC2)cc1 (centres unmarked) [Compound 27] | 318 | 125 | –
CNCCc1ccccc1OCCC1(Cc2ccccc2)C=CCCC1 (centres unmarked) [Compound 36] | – | 500 | –
NCCCCc1ccc(OCCC2(Cc3ccccc3)C=CCCC2)cc1 (centres unmarked) [Compound 11] | 353 | 125 | –
NCCc1ccc(OCCC2(Cc3cccc(Cl)c3)C=CCCC2)cc1 (centres unmarked) [Compound 39] | 61.5 | 31.25 | –
CNCCCc1ccc(OCCC2(CCO)C=CCCC2)cc1 (centres unmarked) [Compound 15] | 432 | 125 | –
CCCCNCCCc1ccc(OCCC2(c3ccc(F)cc3)C=CCCC2)cc1 (centres unmarked) [Compound 26] | 437 | 250 | –
COc1ccc(CC2(CCOc3ccc(CCCN)cc3)C=CCCC2)cc1 (centres unmarked) [Compound 43] | 210 | 125 | –
